Source: ChEMBL document CHEMBL5154761, “Design, synthesis, and evaluation of 9-(pyrimidin-2-yl)-9H-carbazole derivatives disrupting mitochondrial homeostasis in human lung adenocarcinoma” (Eur J Med Chem, 2022)
Calls of active or inactive are those of the source. No cut-off for these calls is given here.

Columns and labels:
A549 [1] = assay: Induction of cell cycle arrest in human A549 cells assessed as accumulation at G2/M phase at 10 uM incubated for 48 hrs by PI staining based flow cytometry analysis; assay type: functional
A549 [2] = assay: Cytotoxicity against human A549 cells assessed as cell growth inhibition at 10 uM incubated for 48 hrs by MTT assay relative to control; assay type: functional
A549 [3] = assay: Cytotoxicity against human A549 cells assessed as cell growth inhibition incubated for 48 hrs by MTT assay; assay type: functional, cell-based; conditions: A549, 48 h

| Compound | Activity (A549 [1]) | inhibition at 10 µM (A549 [2]) | IC50 (A549 [3]) |
| --- | --- | --- | --- |
| O=C(c1ccco1)c1cccc2c3ccccc3n(-c3ncccn3)c12 | Active | 50% | 14.9 µM |
| O=C(c1ccccc1)c1cccc2c3ccccc3n(-c3ncccn3)c12 | Active | 50% | 5.32 µM |
| Cc1ccc(C(=O)c2cccc3c4ccccc4n(-c4ncccn4)c23)cc1 | Active | 50% | 10 µM |
| COc1ccccc1C(=O)c1cccc2c3ccccc3n(-c3ncccn3)c12 | Active | < 50% | 4.02 µM |
| O=C(c1ccc(OCc2ccccc2)cc1)c1cccc2c3ccccc3n(-c3ncccn3)c12 | – | < 50% | 2.15 µM |
| O=C(c1ccc(F)cc1)c1cccc2c3ccccc3n(-c3ncccn3)c12 | Active | < 50% | 2.58 µM |
| Cc1c2ccncc2c(C)c2c1[nH]c1ccccc12 [ELLIPTECINE] | – | – | 3.45 µM |
| O=C(c1ccc(C(F)(F)F)cc1)c1cccc2c3ccccc3n(-c3ncccn3)c12 | Active | 50% | 15.6 µM |
| O=C(c1ccc(I)cc1)c1cccc2c3ccccc3n(-c3ncccn3)c12 | Active | – | 12.5 µM |
| O=C(c1ccc(O)c(O)c1)c1cccc2c3ccccc3n(-c3ncccn3)c12 | – | 50% | 8.86 µM |
| CCOC(=O)c1cccc2c3ccccc3n(-c3ncccn3)c12 | – | 50% | – |
| O=C(c1cccc(Cl)c1)c1cccc2c3ccccc3n(-c3ncccn3)c12 | Active | 50% | 7.19 µM |
